Experimental data: patent US20220242850A1, “PHTHALAZIN-1-ONE DERIVATIVES USEFUL AS GRK2 INHIBITORS” (Janssen Pharmaceutica NV, priority 2019, published 2022)
“And” between values parts separate entries of the source, which are not always exact repeats. Equal entries are not always repeated.

Each molecule was assayed against T1, GRK2 (Homo sapiens, UniProt P25098) (assay: hGRK2 LANCE Ultra In Vitro Assay). Settings: hGRK2 LANCE Ultra Assay IC50, 10 nM GRK2; ATP 30 or 600 μM (not stated which).
T1 sequence (P25098 1-689): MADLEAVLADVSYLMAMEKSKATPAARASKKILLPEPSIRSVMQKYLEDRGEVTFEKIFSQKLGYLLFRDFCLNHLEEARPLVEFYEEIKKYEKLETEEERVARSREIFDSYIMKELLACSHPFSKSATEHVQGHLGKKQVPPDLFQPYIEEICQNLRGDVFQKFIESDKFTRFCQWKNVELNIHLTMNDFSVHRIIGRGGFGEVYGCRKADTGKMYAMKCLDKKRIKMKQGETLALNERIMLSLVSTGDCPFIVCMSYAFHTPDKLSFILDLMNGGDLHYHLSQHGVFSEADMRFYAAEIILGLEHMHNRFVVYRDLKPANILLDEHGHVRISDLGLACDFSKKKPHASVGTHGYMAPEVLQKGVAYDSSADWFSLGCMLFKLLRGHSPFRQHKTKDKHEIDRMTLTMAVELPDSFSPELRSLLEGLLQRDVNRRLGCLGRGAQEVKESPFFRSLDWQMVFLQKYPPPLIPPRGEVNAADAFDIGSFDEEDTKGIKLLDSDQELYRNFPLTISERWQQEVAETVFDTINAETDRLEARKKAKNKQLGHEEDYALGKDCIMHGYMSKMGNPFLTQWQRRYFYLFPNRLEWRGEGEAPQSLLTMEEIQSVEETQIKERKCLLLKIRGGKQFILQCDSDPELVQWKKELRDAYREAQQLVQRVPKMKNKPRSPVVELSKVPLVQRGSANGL
Format: biochemical
Protocol: G-protein coupled receptor kinases (GR Kinases) desensitize activated G-protein coupled receptors (GPCRs), by phosphorylation of cytoplasmic loops or carboxyl-terminal tails of GPCRs. GRK2 is one of the 6 different GR kinases and is implicated in heart failure and diabetes.
This assay is sensitive and requires as low as 10 nM enzyme, in a total volume of 10 μL. In addition, the ATP concentration can be varied over a broad range, without interfering with the assay or changing the assay condition. […] Testing inhibitors routinely at both high and low ATP concentrations also enables identification of potential non-ATP competitive inhibitors.
Paroxetine was used as the reference compound in this assay.
Test compounds were dissolved in DMSO at 1 mM and were 3-fold serial diluted. The compound DMSO solutions were then added (100 nL) into a plate well using an acoustic dispenser. To each well was then added 20 nM GRK2 (5 μL) in assay buffer (20 mM HEPES, pH 7.5, 10 mM MgCl2, 0.001% Tween-20®). The plate was sealed and centrifuged at 1000 rpm for 1 min. The plate and wells containing a mixture of GRK2 and test compound were incubated at ambient temperature for 30 min (prior to initializing the enzymatic reaction).
Enzyme reactions were initiated by the addition of 4.9 μL Substrates/Eu-Ab mix to each well. […] Final concentrations of reagents in the assays were as follows: 20 mM HEPES, pH 7.5; 10 mM MgCl2; 0.001% Tween-2® (w/v), 30 or 600 μM ATP; 200 nM ULight-peptide; 4 nM Eu-Ab; 10 nM GRK2; and 1% DMSO.
The plates were sealed and centrifuged at 1000 rpm for 1 min. For reactions at low ATP concentration (30 μM), reaction mixtures were incubated at ambient temperature for 120 min. For reactions at high ATP concentration (600 μM), reaction mixtures were incubated at ambient temperature for 60 min.
The enzyme reactions were quenched by addition of 10 μL of 12 mM EDTA in 1× LANCE detection solution to each well. The plates were then incubated at ambient temperature for 30 min.
The raw HTRF data were converted to % active as follows:
% active=(sample−NC)/(PC−NC)*100
where NC is the mean of negative control (reactions without GRK2), and PC is the mean of positive control (reactions with GRK2 but without inhibitor). IC50 values were determined from a 4-parameter fit, using the following equation:
(§1) Y=Bottom+(Top−Bottom)/(1+10^(Log IC50-X)*Hill slope)),
(§2) where X=log10 of the compound concentration.

Row | SMILES | IC50 [nM]
1 | COc1cccc(C(C)n2ncc3ccc(-c4cn[nH]c4)cc3c2=O)c1 (single isomer, unassigned) [Compound 16, 2-[1-(3-Methoxyphenyl)ethyl]-7-(1H-pyrazol4-yl)phthalazin-1-one] | 89
2 | COc1cccc(C(C)n2ncc3ccc(-c4cn[nH]c4)cc3c2=O)c1 (single isomer, unassigned) [Compound 17, 2-[1-(3-Methoxyphenyl)ethyl]-7-(1H-pyrazol-4-yl)phthalazin-1-one] | 1700
3 | Cc1cccc(Cl)c1CNC(=O)c1cccc(Cn2ncc3ccc(-c4cn[nH]c4)cc3c2=O)c1 [Compound 2, N-[(2-Chloro-6-methyl-phenyl)methyl]-3-[[1-oxo-7-(1H-pyrazol4-yl)phthaiazin-2-yl]methyl]benzamide] | < 5
4 | O=C(NC1CC1)c1cc(F)cc(Cn2ncc3ccc(-c4cn[nH]c4)cc3c2=O)c1 [Compound 5] | 6.3
5 | O=C(COc1cccc(Cn2ncc3ccc(-c4cn[nH]c4)cc3c2=O)c1)N1CCOCC1 [Compound 6, 2-[[3-(2-Morpholino-2-oxo-ethoxy)phenyl]methyl]-7-(1H-pyrazol-4-yl)phthalazin-1-one] | 8

Next, values leading:

Row | IC50 [nM] | SMILES
6 | < 5 | COc1cccc(Cl)c1CNC(=O)c1cccc(Cn2ncc3ccc(-c4cn[nH]c4)cc3c2=O)c1 [Compound 1, N-[(2-Chloro-6-methoxy-phenyl)methyl]-3-[[1-oxo-7-(1H-pyrazol-4-yl)phthalazin-2-yl]methyl]benzamide]
7 | 5 | O=C(NC1CC2CCC1C2)c1cccc(Cn2ncc3ccc(-c4cn[nH]c4)cc3c2=O)c1 (stereo not drawn) [Compound 3, N-Norbornan-2-yl-3-[[1-oxo-7-(1H-pyrazol-4-yl)phthalazin-2-yl]methyl]benzamide]
8 | 5.5 | C#CCCNC(=O)c1cccc(Cn2ncc3ccc(-c4cn[nH]c4)cc3c2=O)c1 [Compound 4, N-But-3-ynyl-3-[[1-oxo-7-(1H-pyrazol-4-yl)phthalazin-2-yl]methyl]benzamide]
9 | 10 | O=C(NC1CC1)c1cccc(Cn2ncc3ccc(-c4cn[nH]c4)cc3c2=O)c1 [Compound 7, N-Cyclopropyl-3-[[1-oxo-7-(1H-pyrazol-4-yl)phthalazin-2-yl]methyl]benzamide]

The molecules below were run against T1, GRK2 (assay: GRK2 Transcreener Assay). Settings: 10 nM GRK2, 10 uM ATP, 150 uM peptide substrate.
Format: biochemical
Protocol: Positive and negative control wells received an equal volume of DMSO. The final DMSO concentration in the assay is 1%.
The plate was placed in centrifuge equipped with a spin-bucket rotor and spun for 1 min at 1000 rpm.
GRK2 enzymatic reactions were initiated with the addition of 2 μL/well of 50 nM GRK2 in assay buffer. Plates were centrifuged for 1 min at 1000 rpm. For negative control wells, the order of reagent addition was reversed: 10 μL/well ADP detection mix (see below) was added first, followed by the addition of 2 μL/well of the GRK2 solution. Reaction mixtures were incubated at ambient temperature for 2 hours.
Following incubation, the reactions were quenched with 10 μL/well of the Transcreener ADP detection mix. […] The plates were then centrifuged for 1 min at 1000 rpm.
Fluorescence polarization values of the reaction mixtures were read on a Safire II plate reader after a 60 min incubation at ambient temperature. Excitation wavelength=590 nm: emission wavelength=650 nm.
The fluorescence polarization data were converted to % activity as follows:
% activity=(sample−NC)/(PC−NC)*100
where NC is the mean of negative control (ADP detection mix added prior to GRK2 addition), and PC is the mean of positive control (GRK2 reaction without inhibitor). IC50 values are determined from a 4-parameter fit, using the following equation:
as §1, §2

Row | SMILES | IC50
10 | [2H]C([2H])(Oc1cccc([C@@H](C)n2ncc3ccc(-c4cn[nH]c4)cc3c2=O)c1)C(=O)O (single isomer, unassigned) [Compound 20] | 190 nM
11 | [2H]C([2H])(Oc1cccc([C@@H](C)n2ncc3ccc(-c4cn[nH]c4)cc3c2=O)c1)C(=O)OC (single isomer, unassigned) [Compound 21] | 23 nM
12 | Cc1n[nH]cc1-c1ccc2cnn([C@H](C)c3cccc(OCC(=O)O)c3)c(=O)c2c1 (single isomer, unassigned) [Compound 28] | 410 nM
13 | C[C@H](c1cccc(OCC(=O)O)c1)n1ncc2ccc(-c3cn[nH]c3)cc2c1=O (single isomer, unassigned) [Compound 29] | 47 nM
14 | COc1cccc([C@@H](C)n2ncc3ccc(-c4ccnc(N)n4)cc3c2=O)c1 (single isomer, unassigned) [Compound 33] | 7700 nM
15 | COC(=O)CCNC(=O)c1cccc(Cn2ncc3ccc(-c4cn[nH]c4)cc3c2=O)c1 [Compound 24, Methyl 3-[[3-[[1-oxo-7-(1H-pyrazol-4-yl)phthalazin-2-yl]methyl]benzoyl]amino]propanoate] | 7.4 nM
16 | COC(=O)Cc1cccc(Cn2ncc3ccc(-c4cn[nH]c4)cc3c2=O)c1 [Compound 25, Methyl 2-[3-[[1-oxo-7-(1H-pyrazol-4-yl)phthalazin-2-yl]methyl]phenyl]acetate] | 220 nM
17 | O=C(O)CCNC(=O)c1cccc(Cn2ncc3ccc(-c4cn[nH]c4)cc3c2=O)c1 [Compound 26, 3-[[3-[[1-Oxo-7-(1H-pyrazol-4-yl)phthalazin-2-yl]methyl]benzoyl]amino]propanoic acid] | 520 nM
18 | COc1cccc(Cn2ncc3ccc(-c4ccnc(N)n4)cc3c2=O)c1 [Compound 34, 7-(2-Aminopyrimidin-4-yl)-2-[(3-methoxyphenyl)methyl]phthalazin-1-one] | 890 nM
19 | COc1cccc(Cn2ncc3ccc(-c4ccoc4)cc3c2=O)c1 [Compound 36, 7-(3-Furyl)-2-[(3-methoxyphenyl)methyl]phthalazin-1-one] | 900 nM
20 | O=c1c2cc(-c3cn[nH]c3)ccc2cnn1Cc1ccccc1 [Compound 40, 2-Benzyl-7-(1H-pyrazol-4-yl)phthalazin-1-one] | 300 nM

Results, then the molecule that gave them:

Row | IC50 | SMILES
21 | 11000 nM | C[C@H](c1cccc(OCC(=O)O)c1)n1ncc2ccc(-c3ccnc(N)n3)cc2c1=O (single isomer, unassigned) [Compound 22]
22 | 1900 nM | COC(=O)COc1cccc([C@@H](C)n2ncc3ccc(-c4ccnc(N)n4)cc3c2=O)c1 (single isomer, unassigned) [Compound 27]
23 | 660 nM | C[C@H](c1cccc(OCCOC2CC2)c1)n1ncc2ccc(-c3cn[nH]c3)cc2c1=O (single isomer, unassigned) [Compound 30]
24 | 6200 nM | Cc1n[nH]cc1-c1ccc2cnn([C@H](C)c3cccc(OCCOC4CC4)c3)c(=O)c2c1 (single isomer, unassigned) [Compound 31]
25 | 1300 nM | O=C(O)Cc1cccc(Cn2ncc3ccc(-c4cn[nH]c4)cc3c2=O)c1 [Compound 23, 2-[3-[[1-oxo-7-(1H-pyrazol-4-yl)phthalazin-2-yl]methyl]phenyl]acetic acid]
26 | 1600 nM | CCC(c1cccc(OC)c1)n1ncc2ccc(-c3cn[nH]c3)cc2c1=O (stereo not drawn) [Compound 32, 2-[1-(3-Methoxyphenyl)propyl]-7-(1H-pyrazol-4-yl)phthalazin-1-one]
27 | 140 nM and 120 nM | COc1cccc(Cn2ncc3ccc(-c4c[nH]nc4C)cc3c2=O)c1 [Compound 35, 2-[(3-Methoxyphenyl)methyl]-7-(3-methyl-1H-pyrazol-4-yl)phthalazin-1-one]
28 | < 5 nM | COC(=O)COc1cccc(Cn2ncc3ccc(-c4cn[nH]c4)cc3c2=O)c1 [Compound 37, Methyl 2-[3-[[1-oxo-7-(1H-pyrazol-4-yl)phthalazin-2-yl]methyl]phenoxy]acetate]
29 | 8 nM | O=C(O)COc1cccc(Cn2ncc3ccc(-c4cn[nH]c4)cc3c2=O)c1 [Compound 38, 2-[3-[[1-Oxo-7-(1H-pyrazol-4-yl)phthalazin-2-yl]methyl]phenoxy]acetic acid]
30 | > 50000 nM | O=c1c2cc(-c3cn[nH]c3)ccc2cnn1Cc1cccc(OC(F)(F)F)c1 [Compound 39, 7-(1H-Pyrazol-4-yl)-2-[[3-(trifluoromethoxy)phenyl]methyl]phthalazin-1-one]
